From ChEMBL document CHEMBL3044536, “The synthesis, anti-inflammatory, and anti-microbial activity evaluation of new series of 4-(3-arylureido)phenyl-1,4-dihydropyridine urea derivatives” (2013)
≈ marks a conversion by molar mass, not a printed value. Calls of active or inactive are those of the source. The calls are words filed in the database; no cut-off is given here.

Columns and labels:
[1] = test system: THP-1; test: Anti-inflammatory activity in Homo sapiens (human) THP1 cells assessed as inhibition of LPS-induced TNFalpha production at 10 uM incubated for 30 min prior to LPS-challenge measured after 24 hr by ELISA; assay type: functional
[2] = test system: Aspergillus flavus; test: Antifungal activity against Aspergillus flavus; assay type: functional
[3] = test system: Salmonella typhimurium; test: Antibacterial activity against Salmonella enterica subsp. enterica serovar Typhimurium; assay type: functional
[4] = test system: Escherichia coli; test: Antibacterial activity against Escherichia coli; assay type: functional
[5] = test system: Fusarium solani; test: Antifungal activity against Fusarium solani; assay type: functional
[6] = test system: Candida albicans; test: Antifungal activity against Candida albicans; assay type: functional
[7] = test system: THP-1; test: Anti-inflammatory activity in Homo sapiens (human) THP1 cells assessed as inhibition of LPS-induced IL6 production at 10 uM incubated for 30 min prior to LPS-challenge measured after 24 hr by ELISA; assay type: functional
[8] = test system: Staphylococcus aureus; test: Antibacterial activity against Staphylococcus aureus; assay type: functional
[9] = test system: Bacillus subtilis; test: Antibacterial activity against Bacillus subtilis up to 200 ug/ml; assay type: functional, organism-based
[10] = test system: Aspergillus niger; test: Antifungal activity against Aspergillus niger; assay type: functional
[11] = test system: Escherichia coli; test: Ratio of ciprofloxacin MIC to compound MIC for Escherichia coli; assay type: functional
[12] = test system: Salmonella typhimurium; test: Ratio of ciprofloxacin MIC to compound MIC for Salmonella enterica subsp. enterica serovar Typhimurium; assay type: functional
[13] = test system: Bacillus subtilis; test: Antibacterial activity against Bacillus subtilis; assay type: functional
[14] = test system: Staphylococcus aureus; test: Ratio of ciprofloxacin MIC to compound MIC for Staphylococcus aureus; assay type: functional
[15] = test system: Bacillus subtilis; test: Ratio of ciprofloxacin MIC to compound MIC for Bacillus subtilis; assay type: functional
[16] = test system: Candida albicans; test: Antifungal activity against Candida albicans relative to miconazole; assay type: functional
[17] = test system: Aspergillus niger; test: Antifungal activity against Aspergillus niger relative to miconazole; assay type: functional
[18] = test system: Fusarium solani; test: Antifungal activity against Fusarium solani relative to miconazole; assay type: functional
[19] = test system: Aspergillus flavus; test: Antifungal activity against Aspergillus flavus relative to miconazole; assay type: functional
[20] = test system: Aspergillus flavus; test: Antifungal activity against Aspergillus flavus up to 200 ug/ml; assay type: functional, organism-based
[21] = test system: Aspergillus niger; test: Antifungal activity against Aspergillus niger up to 200 ug/ml; assay type: functional, organism-based
[22] = test system: Candida albicans; test: Antifungal activity against Candida albicans up to 200 ug/ml; assay type: functional, organism-based
[23] = test system: Staphylococcus aureus; test: Antibacterial activity against Staphylococcus aureus up to 200 ug/ml; assay type: functional, organism-based
[24] = test system: Fusarium solani; test: Antifungal activity against Fusarium solani up to 200 ug/ml; assay type: functional, organism-based
[25] = test system: THP-1; test: Anti-inflammatory activity in Homo sapiens (human) THP1 cells assessed as inhibition of LPS-induced IL6 production at 1 uM incubated for 30 min prior to LPS-challenge measured after 24 hr by ELISA; assay type: functional
[26] = test system: THP-1; test: Anti-inflammatory activity in Homo sapiens (human) THP1 cells assessed as inhibition of LPS-induced TNFalpha production at 1 uM incubated for 30 min prior to LPS-challenge measured after 24 hr by ELISA; assay type: functional

SMILES: CCOC(=O)C1=C(C)NC(C)=C(C(=O)OCC)C1c1ccc(NC(=O)Nc2cc(C(F)(F)F)ccc2Cl)cc1
- inhibition at 10 µM [1]: 0%
- MIC [2]: 90 µg/mL (≈ 159 µM)
- MIC [3]: 90 µg/mL (≈ 159 µM)
- MIC [4]: 65 µg/mL (≈ 115 µM)
- MIC [5]: 90 µg/mL (≈ 159 µM)
- MIC [6]: 65 µg/mL (≈ 115 µM)
- inhibition at 10 µM [7]: 12%
- MIC [8]: 80 µg/mL (≈ 141 µM)
- Activity [9]: inactive
- MIC [10]: 45 µg/mL (≈ 79.5 µM)

SMILES: CCOC(=O)C1=C(C)NC(C)=C(C(=O)OCC)C1c1ccc(NC(=O)Nc2ccc(F)cc2F)cc1
- inhibition at 10 µM [1]: 28%
- MIC [2]: 35 µg/mL (≈ 70.1 µM)
- MIC [3]: 25 µg/mL (≈ 50 µM)
- Ratio [11]: 2
- MIC [4]: 25 µg/mL (≈ 50 µM)
- MIC [5]: 20 µg/mL (≈ 40 µM)
- Ratio [12]: 2
- MIC [6]: 35 µg/mL (≈ 70.1 µM)
- inhibition at 10 µM [7]: 54%
- MIC [8]: 45 µg/mL (≈ 90.1 µM)
- MIC [13]: 50 µg/mL (≈ 100 µM)
- Ratio [14]: 2
- Ratio [15]: 2
- MIC [10]: 20 µg/mL (≈ 40 µM)

SMILES: CCOC(=O)C1=C(C)NC(C)=C(C(=O)OCC)C1c1ccc(NC(=O)Nc2cc(Cl)ccc2Cl)cc1
- inhibition at 10 µM [1]: 36%
- MIC [2]: 20 µg/mL (≈ 37.6 µM)
- Activity [16]: >50%
- Activity [17]: >50%
- Activity [18]: >50%
- MIC [3]: 15 µg/mL (≈ 28.2 µM)
- MIC [4]: 15 µg/mL (≈ 28.2 µM)
- MIC [5]: 10 µg/mL (≈ 18.8 µM)
- MIC [6]: 10 µg/mL (≈ 18.8 µM)
- inhibition at 10 µM [7]: 51%
- MIC [8]: 15 µg/mL (≈ 28.2 µM)
- MIC [13]: 25 µg/mL (≈ 47 µM)
- Activity [19]: >50%
- MIC [10]: 30 µg/mL (≈ 56.3 µM)

SMILES: CCOC(=O)C1=C(C)NC(C)=C(C(=O)OCC)C1c1ccc([N+](=O)[O-])cc1
- inhibition at 10 µM [1]: 0%
- MIC [3]: 90 µg/mL (≈ 240 µM)
- MIC [4]: 90 µg/mL (≈ 240 µM)
- MIC [5]: 90 µg/mL (≈ 240 µM)
- Activity [20]: inactive
- inhibition at 10 µM [7]: 0%
- MIC [8]: 90 µg/mL (≈ 240 µM)
- Activity [9]: inactive
- Activity [21]: inactive
- Activity [22]: inactive

SMILES: CCOC(=O)C1=C(C)NC(C)=C(C(=O)OCC)C1c1ccc(NC(=O)Nc2ccc(C#N)cc2)cc1
- inhibition at 10 µM [1]: 0%
- MIC [2]: 20 µg/mL (≈ 40.9 µM)
- Activity [16]: >50%
- Activity [17]: >50%
- Activity [18]: >50%
- MIC [3]: 10 µg/mL (≈ 20.5 µM)
- Ratio [11]: 2
- MIC [4]: 15 µg/mL (≈ 30.7 µM)
- MIC [5]: 25 µg/mL (≈ 51.2 µM)
- Ratio [12]: 2
- MIC [6]: 20 µg/mL (≈ 40.9 µM)
- inhibition at 10 µM [7]: 8%
- MIC [8]: 10 µg/mL (≈ 20.5 µM)
- MIC [13]: 10 µg/mL (≈ 20.5 µM)
- Activity [19]: >50%
- Ratio [14]: 2
- Ratio [15]: 2
- MIC [10]: 10 µg/mL (≈ 20.5 µM)

SMILES: CCOC(=O)C1=C(C)NC(C)=C(C(=O)OCC)C1c1ccc(NC(=O)Nc2ccc(C(F)(F)F)cc2)cc1
- inhibition at 10 µM [1]: 74%
- MIC [2]: 70 µg/mL (≈ 132 µM)
- MIC [3]: 90 µg/mL (≈ 169 µM)
- MIC [4]: 90 µg/mL (≈ 169 µM)
- MIC [5]: 90 µg/mL (≈ 169 µM)
- MIC [6]: 45 µg/mL (≈ 84.7 µM)
- inhibition at 10 µM [7]: 86%
- MIC [8]: 60 µg/mL (≈ 113 µM)
- MIC [13]: 85 µg/mL (≈ 160 µM)
- MIC [10]: 55 µg/mL (≈ 103 µM)

SMILES: Clc1ccc(COC(Cn2ccnc2)c2ccc(Cl)cc2Cl)c(Cl)c1 (stereo unspecified) [MICONAZOLE]
- MIC [2]: 20 µg/mL (≈ 48.1 µM)
- MIC [5]: 15 µg/mL (≈ 36 µM)
- MIC [6]: 25 µg/mL (≈ 60.1 µM)
- MIC [10]: 20 µg/mL (≈ 48.1 µM)

SMILES: CCOC(=O)C1=C(C)NC(C)=C(C(=O)OCC)C1c1ccc(NC(=O)Nc2ccc(F)cc2)cc1
- inhibition at 10 µM [1]: 42%
- MIC [2]: 85 µg/mL (≈ 177 µM)
- MIC [3]: 65 µg/mL (≈ 135 µM)
- MIC [4]: 65 µg/mL (≈ 135 µM)
- MIC [5]: 85 µg/mL (≈ 177 µM)
- MIC [6]: 65 µg/mL (≈ 135 µM)
- inhibition at 10 µM [7]: 68%
- MIC [8]: 40 µg/mL (≈ 83.1 µM)
- MIC [13]: 80 µg/mL (≈ 166 µM)
- MIC [10]: 45 µg/mL (≈ 93.5 µM)

SMILES: CCOC(=O)C1=C(C)NC(C)=C(C(=O)OCC)C1c1ccc(NC(=O)Nc2ccc(Cl)cc2Cl)cc1
- inhibition at 10 µM [1]: 11%
- MIC [2]: 20 µg/mL (≈ 37.6 µM)
- MIC [3]: 20 µg/mL (≈ 37.6 µM)
- MIC [4]: 10 µg/mL (≈ 18.8 µM)
- MIC [5]: 25 µg/mL (≈ 47 µM)
- MIC [6]: 15 µg/mL (≈ 28.2 µM)
- inhibition at 10 µM [7]: 24%
- MIC [8]: 20 µg/mL (≈ 37.6 µM)
- MIC [13]: 35 µg/mL (≈ 65.7 µM)
- MIC [10]: 10 µg/mL (≈ 18.8 µM)

SMILES: CCOC(=O)C1=C(C)NC(C)=C(C(=O)OCC)C1c1ccc(NC(=O)Nc2cc(F)ccc2F)cc1
- inhibition at 10 µM [1]: 78%
- Activity [23]: inactive
- MIC [3]: 90 µg/mL (≈ 180 µM)
- Activity [24]: inactive
- MIC [4]: 70 µg/mL (≈ 140 µM)
- Activity [20]: inactive
- MIC [6]: 85 µg/mL (≈ 170 µM)
- inhibition at 10 µM [7]: 96%
- Activity [9]: inactive
- MIC [10]: 90 µg/mL (≈ 180 µM)

SMILES: CCOC(=O)C1=C(C)NC(C)=C(C(=O)OCC)C1c1ccc(N)cc1
- inhibition at 10 µM [1]: 0%
- MIC [2]: 90 µg/mL (≈ 261 µM)
- MIC [3]: 45 µg/mL (≈ 131 µM)
- MIC [4]: 40 µg/mL (≈ 116 µM)
- MIC [5]: 90 µg/mL (≈ 261 µM)
- MIC [6]: 90 µg/mL (≈ 261 µM)
- inhibition at 10 µM [7]: 0%
- MIC [8]: 60 µg/mL (≈ 174 µM)
- MIC [13]: 85 µg/mL (≈ 247 µM)
- Activity [21]: inactive

SMILES: C[C@@H]1C[C@H]2[C@@H]3CCC4=CC(=O)C=C[C@]4(C)[C@@]3(F)[C@@H](O)C[C@]2(C)[C@@]1(O)C(=O)CO [DEXAMETHASONE]
- inhibition at 1 µM [25]: 80%
- inhibition at 1 µM [26]: 71%

SMILES: O=C(O)c1cn(C2CC2)c2cc(N3CCNCC3)c(F)cc2c1=O [CIPROFLOXACIN]
- MIC [3]: 25 µg/mL (≈ 75.4 µM)
- MIC [4]: 20 µg/mL (≈ 60.4 µM)
- MIC [8]: 20 µg/mL (≈ 60.4 µM)
- MIC [13]: 25 µg/mL (≈ 75.4 µM)

SMILES: CCOC(=O)C1=C(C)NC(C)=C(C(=O)OCC)C1c1ccc(NC(=O)Nc2ccc(Cl)cc2)cc1
- inhibition at 10 µM [1]: 0%
- MIC [2]: 20 µg/mL (≈ 40.2 µM)
- MIC [3]: 35 µg/mL (≈ 70.3 µM)
- MIC [4]: 20 µg/mL (≈ 40.2 µM)
- MIC [5]: 20 µg/mL (≈ 40.2 µM)
- MIC [6]: 30 µg/mL (≈ 60.2 µM)
- inhibition at 10 µM [7]: 18%
- MIC [8]: 65 µg/mL (≈ 131 µM)
- MIC [13]: 80 µg/mL (≈ 161 µM)
- MIC [10]: 20 µg/mL (≈ 40.2 µM)

SMILES: CCOC(=O)C1=C(C)NC(C)=C(C(=O)OCC)C1c1ccc(NC(=O)Nc2ccc(Cl)cc2C(F)(F)F)cc1
- inhibition at 10 µM [1]: 83%
- MIC [2]: 80 µg/mL (≈ 141 µM)
- MIC [3]: 60 µg/mL (≈ 106 µM)
- MIC [4]: 45 µg/mL (≈ 79.5 µM)
- MIC [5]: 60 µg/mL (≈ 106 µM)
- MIC [6]: 50 µg/mL (≈ 88.3 µM)
- inhibition at 10 µM [7]: 91%
- MIC [8]: 55 µg/mL (≈ 97.2 µM)
- MIC [13]: 70 µg/mL (≈ 124 µM)
- MIC [10]: 85 µg/mL (≈ 150 µM)
